Measured values from publication PMC10102067, “Synthesis of vancomycin fluorescent probes that retain antimicrobial activity, identify Gram-positive bacteria, and detect Gram-negative outer membrane damage” (Communications Biology, 2023).
Converted amounts (≈) assume the structure as drawn. Counter-ions that a name gives are not always drawn. Like-named read-outs stand apart in the source and are kept apart here. Bridge positions count the residues as written; N and C are the ends. Square brackets hold non-standard residues; d marks the D form. Peptide text beside a SMILES is read from it. * marks the point of attachment. Decanoyl(3R-OH) = CCCCCCC[C@@H](O)CC(=O)*; dDab = NCC[C@@H](N)C(=O)O; Dab = NCC[C@H](N)C(=O)O

What was measured:
E. coli = experiment: microbe, parasite or virus in culture
Method: Bacteria were obtained from the American Type Culture Collection (ATCC; Manassas, VA, USA), Merck Sharp & Dohme (Kenilworth, NJ), the Coli Genetic Stock Center (CGSC, Yale University), Network on Antimicrobial Resistance in Staphylococcus aureus (NARSA) via BEI Resources (www.beiresources.org) and independent academic clinical isolate and mutant collections. All species used in this study were described fully in Table S4. Bacteria were cultured in Cation-Adjusted Mueller-Hinton Broth (CAMHB, Bacto Laboratories, Cat No. 212322) or Muller Hinton Broth (MHB, Bacto Laboratories, Cat No. 211443) at 37 °C overnight. A sample of each culture was then diluted 50-fold in MHB and incubated at 37 °C for 1.5–3 h. The stock solutions of vancomycin probes 7, 8 and 9 were prepared at 1.28 mg/mL in sterile water. The compounds were serially diluted two-fold across the wells, with concentrations ranging from 0.06 µg/mL to 128 µg/mL, plated in duplicate. […]

E. coli ATCC 25922 = experiment: Permeability test in Gram-negative bacteria, flow cytometry method (Fig. 4i); assay type: cell-based; conditions: compound 0.125–128 µg/mL 1 h 37 °C, then probe 9 32 µg/mL 30 min
Method: E. coli ATCC 25922 cells were cultured in LB at 37 °C overnight. […] The resultant mid-log phase cultures were harvested and washed once with HBSS, then resuspended in HBSS to an OD600 of 1. Then 1 mL of the cultures were transferred to Eppendorf tubes and centrifuged. Solutions (1 mL) of antibiotics (0.125–128 µg /mL) and isopropanol (100 %) was added, then left for 1 h at 37 °C with shaking (180 rpm). […] Bacteria were washed again with HBSS, the pellets were suspended in 200 µL of HBSS, and 100 µL of the suspended bacteria solution was added into black 96-well plates (Black flat bottom, 96-Well plate, Corning, Cat No. CLS3915-100EA) for Tecan plate reader measurement (Tecan Plate Reader, Infinite M1000 Pro). Excitation: 475 nm; Emission: 550 nm. On the other hand, suspended bacteria solution was then diluted 1000-fold in HBSS for flow cytometer measurement (Cytoflex S, Beckman Coulter, Inc. 250 S. Kraemer Blvd. Brea, CA 92821 U.S.A.). The detector used here was FITC (Excitation 488 nm; Emission 525/40 nm). 40000 events were collected. The data was analysed using Kaluza Analysis 2.1 software (Beckman Coulter, Inc. 250 S. Kraemer Blvd. Brea, CA 92821 U.S.A.) and statistical software GraphPad Prism 8 (San Diego, CA, U.S.A.).

[1] = Table S2: CGSC7139 DC2 mutant, CaMHB, non-treated polystyrene plate
[2] = Table S2: CGSC7139 DC2 mutant, MHB, non-treated polystyrene plate
[3] = Table S2: MB4902 LpxC mutant, CaMHB, non-treated polystyrene plate
[4] = Table S2: MB4902 LpxC mutant, MHB, non-treated polystyrene plate
[5] = Escherichia coli, ATCC25922, read-out: E. coli MIC, Table S2: ATCC 25922 FDA Control, CaMHB, non-treated polystyrene plate
[6] = Escherichia coli, ATCC25922, read-out: E. coli MIC, Table S2: ATCC 25922 FDA Control, MHB, non-treated polystyrene 96-well plate
[7] = Escherichia coli, read-out: E. coli MIC, Table S2: CGSC7139 DC2 mutant, CaMHB, non-treated polystyrene plate
[8] = Escherichia coli, read-out: E. coli MIC, Table S2: CGSC7139 DC2 mutant, MHB, non-treated polystyrene plate
[9] = Escherichia coli, read-out: E. coli MIC, Table S2: MB4827 K12, CaMHB, non-treated polystyrene plate
[10] = Escherichia coli, read-out: E. coli MIC, Table S2: MB4827 K12, MHB, non-treated polystyrene plate
[11] = Escherichia coli, read-out: E. coli MIC, Table S2: MB4902 LpxC mutant, CaMHB, non-treated polystyrene plate
[12] = Escherichia coli, read-out: E. coli MIC, Table S2: MB4902 LpxC mutant, MHB, non-treated polystyrene plate
[13] = Table S2: ATCC 25922 FDA Control, CaMHB, non-treated polystyrene plate
[14] = Table S2: ATCC 25922 FDA Control, MHB, non-treated polystyrene 96-well plate
[15] = Table S2: MB4827 K12, CaMHB, non-treated polystyrene plate
[16] = Table S2: MB4827 K12, MHB, non-treated polystyrene plate

Compound | E. coli MIC (E. coli; [1]) | E. coli MIC (E. coli; [2]) | E. coli MIC (E. coli; [3]) | E. coli MIC (E. coli; [4]) | outer membrane damage: fluorescence of probe 9 labelling after treatment (in words) (E. coli ATCC 25922) | MIC (E. coli; [7]) | MIC (E. coli; [8]) | MIC (E. coli; [11]) | MIC (E. coli; [12]) | further results
CN[C@H](CC(C)C)C(=O)N[C@H]1C(=O)N[C@@H](CC(N)=O)C(=O)N[C@H]2C(=O)N[C@H]3C(=O)N[C@H](C(=O)N[C@H](C(=O)O)c4cc(O)cc(O)c4-c4cc3ccc4O)[C@H](O)c3ccc(c(Cl)c3)Oc3cc2cc(c3O[C@@H]2O[C@H](CO)[C@@H](O)[C@H](O)[C@H]2O[C@H]2C[C@](C)(N)[C@H](O)[C@H](C)O2)Oc2ccc(cc2Cl)[C@H]1O [1 Vancomycin, Vancomycin] | – | – | – | – | – | – | – | – | – | MIC (E. coli; 3 h): > 64 µg/mL
CC(C)[C@@H]1NC(=O)CNC(=O)[C@H](CC(N)=O)NC(=O)[C@H](CCCNC(=N)N)NC(=O)[C@H](Cc2ccc(O)cc2)NC(=O)[C@H](C(C)C)NC(=O)[C@@H]2CSSC[C@H](NC(=O)[C@H](C(C)C)NC(=O)[C@H](CCCNC(=N)N)NC1=O)C(=O)N[C@@H](Cc1ccc(O)cc1)C(=O)N[C@@H](CCCNC(=N)N)C(=O)N[C@@H](CCCNC(=N)N)C(=O)N[C@H](C(=O)N[C@@H](CC(N)=O)C(=O)O)CSSC[C@H](NC(=O)[C@H](Cc1ccccc1)NC(=O)CN)C(=O)N[C@@H](Cc1c[nH]c3ccccc13)C(=O)N[C@@H](Cc1ccc(O)cc1)C(=O)N[C@@H](C(C)C)C(=O)N2 [Arenicin-3] (H-GFCWYVCVYRNGVRVCYRRCN-OH; disulfide 3-20, 7-16; N-terminus and C-terminus assumed) | 2 to 8 µg/mL | 2 to 8 µg/mL | 1 µg/mL | 1 to 2 µg/mL | increased fluorescence at the lowest concentrations | – | – | – | – | –
CC[C@H](C)[C@H](NC(=O)[C@@H](NC(=O)[C@H](CO)NC(=O)[C@H](C)NC(=O)[C@@H](NC(=O)[C@H](CCCCN)NC(=O)[C@H](CCCCN)NC(=O)[C@@H](NC(=O)[C@@H](NC(=O)[C@H](CC(=O)O)NC(=O)[C@H](Cc1ccccc1)NC(=O)[C@H](CC(C)C)NC(=O)CN)C(C)C)[C@@H](C)CC)C(C)C)C(C)C)C(=O)NCC(=O)NCC(=O)N[C@@H](CC(C)C)C(N)=O [Citropin 1.1] (H-GLFDVIKKVASVIGGL-NH2; N-terminus and C-terminus assumed) | – | – | – | – | substantially higher concentrations before membrane damage was seen | – | – | – | – | –
CC[C@H]1OC(=O)[C@H](C)[C@@H](O[C@H]2C[C@@](C)(OC)[C@@H](O)[C@H](C)O2)[C@H](C)[C@@H](O[C@@H]2O[C@H](C)C[C@H](N(C)C)[C@H]2O)[C@](C)(O)C[C@@H](C)C(=O)[C@H](C)[C@@H](O)[C@]1(C)O [Erythromycin] | – | – | – | – | – | > 64 µg/mL | > 64 µg/mL | 8 µg/mL (≈ 10.9 µM) | 8 µg/mL (≈ 10.9 µM) | MIC (E. coli; [5]): 64 µg/mL (≈ 87.2 µM); MIC (E. coli; [6]): 64 µg/mL (≈ 87.2 µM); MIC (E. coli; [9]): > 64 µg/mL; MIC (E. coli; [10]): 64 µg/mL (≈ 87.2 µM)
CNC(C)C1CCC(N)C(OC2C(N)CC(N)C(OC3OCC(C)(O)C(NC)C3O)C2O)O1 (centres unmarked) [Gentamicin sulfate] | – | – | – | – | – | 0.5 to 2 µg/mL | 0.5 to 4 µg/mL | 0.25 to 0.5 µg/mL | 0.25 to 0.5 µg/mL | MIC (E. coli; [5]): 1 µg/mL; MIC (E. coli; [6]): 2 µg/mL; MIC (E. coli; [9]): 0.5 to 1 µg/mL; MIC (E. coli; [10]): 0.5 to 1 µg/mL
CCCCCCC[C@@H](O)CC(=O)N[C@H](CCN)C(=O)N[C@H]1CCNC(=O)[C@H](CC(C)C)NC(=O)[C@H](CCN)NC(=O)[C@H](CCN)NC(=O)[C@H](CC(C)C)NC(=O)[C@@H](Cc2ccccc2)NC(=O)[C@H](CCN)NC1=O [Octapeptin C4] ({Decanoyl(3R-OH)}-[dDab][Dab][Dab][dF]L[Dab][Dab]L; lactam 2-C (inferred); N-terminus assumed) | 2 to 8 µg/mL | 1 to 2 µg/mL | 2 µg/mL | 2 µg/mL | substantially higher concentrations before membrane damage was seen | – | – | – | – | –
CC[C@H](C)[C@@H]1NC(=O)CNC(=O)[C@H](CCCNC(=N)N)NC(=O)[C@H](Cc2ccc(O)cc2)NC(=O)[C@@H]2CSSC[C@H](NC1=O)C(=O)N[C@@H](Cc1ccc(O)cc1)C(=O)N[C@@H](CCCNC(=N)N)C(=O)N[C@@H](CCCNC(=N)N)C(=O)N[C@H](C(=O)N[C@@H](CCCNC(=N)N)C(N)=O)CSSC[C@H](NC(=O)[C@H](Cc1c[nH]c3ccccc13)NC(=O)[C@@H](N)CCCCN)C(=O)N[C@@H](Cc1ccccc1)C(=O)N[C@@H](CCCNC(=N)N)C(=O)N[C@@H](C(C)C)C(=O)N2 [Tachyplesin-1] (H-KWCFRVCYRGICYRRCR-NH2; disulfide 3-16, 7-12 (inferred); N-terminus and C-terminus assumed) | – | – | – | – | increased fluorescence at the lowest concentrations | – | – | – | – | –
COc1cc(Cc2cnc(N)nc2N)cc(OC)c1OC [Trimethoprim] | – | – | – | – | – | 0.25 to 0.5 µg/mL (≈ 0.861 to 1.72 µM) | 0.25 to 0.5 µg/mL (≈ 0.861 to 1.72 µM) | 0.5 to 1 µg/mL (≈ 1.72 to 3.44 µM) | 0.5 to 1 µg/mL (≈ 1.72 to 3.44 µM) | E. coli MIC (E. coli): 1 to 2 µg/mL; MIC (E. coli; Escherichia coli, ATCC25922, read-out: E. coli MIC): 1 µg/mL (≈ 3.44 µM); MIC (E. coli; Escherichia coli, read-out: E. coli MIC): 0.5 µg/mL (≈ 1.72 µM)
Colistin sulfate | 0.125 to 0.25 µg/mL | 0.125 µg/mL | 0.03 to 0.06 µg/mL | 0.03 to 0.06 µg/mL | – | – | – | – | – | E. coli MIC (E. coli; [13]): 0.25 µg/mL; E. coli MIC (E. coli; [14]): 0.25 µg/mL; E. coli MIC (E. coli; [15]): 0.06 to 0.25 µg/mL; E. coli MIC (E. coli; [16]): 0.06 to 0.125 µg/mL
Polymyxin B | – | – | 0.03 to 0.06 µg/mL | 0.03 to 0.06 µg/mL | – | – | – | – | – | E. coli MIC (E. coli; ATCC 29522, NBS 96-well plates (Table 2)): 0.06 µg/mL; E. coli MIC (E. coli; CFT073, NBS plates (Table 2)): ≤0.03 µg/mL; E. coli MIC (E. coli; CFT073 WaaL mutant, NBS plates (Table 2)): ≤0.03 µg/mL; E. coli MIC (E. coli; DC2 mutant, NBS plates (Table 2)): ≤0.03 µg/mL; E. coli MIC (E. coli; LpxC mutant, NBS plates (Table 2)): ≤0.03 µg/mL; E. coli MIC (E. coli; MB4827 K12, NBS plates (Table 2)): ≤0.03 µg/mL; E. coli MIC (E. coli; [13]): 0.125 µg/mL; E. coli MIC (E. coli; [14]): 0.125 µg/mL; E. coli MIC (E. coli; [15]): 0.125 µg/mL; E. coli MIC (E. coli; [16]): 0.125 µg/mL
